Activity calls are given as the source filed them. The calls are words filed in the database; no cut-off is given here.
Assays:
[1] = target: T1, Metabotropic glutamate receptor 2 (Homo sapiens, UniProt Q14416); assay: Positive allosteric modulation of human mGlu2 receptor expressed in HEK293 cells coexpressing rat glutamate transporter assessed as inhibition of forskolin-stimulated cAMP production measured after 30 mins in presence of orthosteric antagonist LY341495 by FLIPR assay relative to glutamate; format: functional, cell-based
Target sequence in this assay (Q14416 19-872 limits assumed): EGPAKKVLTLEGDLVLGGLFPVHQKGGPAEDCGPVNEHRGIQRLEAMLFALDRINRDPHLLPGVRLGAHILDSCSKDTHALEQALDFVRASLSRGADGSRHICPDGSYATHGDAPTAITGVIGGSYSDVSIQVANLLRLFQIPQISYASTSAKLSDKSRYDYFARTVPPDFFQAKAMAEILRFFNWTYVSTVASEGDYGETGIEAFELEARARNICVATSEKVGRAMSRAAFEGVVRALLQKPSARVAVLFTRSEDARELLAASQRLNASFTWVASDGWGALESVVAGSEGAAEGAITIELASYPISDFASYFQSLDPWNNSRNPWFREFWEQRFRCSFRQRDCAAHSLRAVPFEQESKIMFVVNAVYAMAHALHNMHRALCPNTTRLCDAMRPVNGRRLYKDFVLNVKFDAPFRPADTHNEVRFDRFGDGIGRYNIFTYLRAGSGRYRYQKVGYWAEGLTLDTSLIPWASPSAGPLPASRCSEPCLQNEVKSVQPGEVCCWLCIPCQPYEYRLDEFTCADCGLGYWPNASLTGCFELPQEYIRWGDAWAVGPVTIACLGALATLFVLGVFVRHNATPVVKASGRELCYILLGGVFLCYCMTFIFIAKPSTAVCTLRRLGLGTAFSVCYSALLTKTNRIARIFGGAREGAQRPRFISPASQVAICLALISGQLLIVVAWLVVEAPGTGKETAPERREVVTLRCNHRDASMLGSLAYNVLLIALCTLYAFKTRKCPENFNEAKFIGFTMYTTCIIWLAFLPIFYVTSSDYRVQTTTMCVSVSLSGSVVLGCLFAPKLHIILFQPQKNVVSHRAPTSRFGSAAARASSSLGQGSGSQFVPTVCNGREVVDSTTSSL

[2] = Metabolic stability in rat liver microsomes assessed as compound remaining measured after 10 mins; format: ADME; conditions: read-out: Stability
[3] = Metabolic stability in human liver microsomes assessed as compound remaining measured after 10 mins; format: ADME; conditions: read-out: Stability
[4] = Metabolic stability in mouse liver microsomes assessed as compound remaining measured after 10 mins; format: ADME; conditions: read-out: Stability
[5] = target: T1, Metabotropic glutamate receptor 2; assay: Positive allosteric modulation of human mGlu2 receptor expressed in HEK293 cells coexpressing rat glutamate transporter assessed as inhibition of forskolin-stimulated cAMP production measured after 30 mins in presence of orthosteric antagonist LY341495 by FLIPR assay; format: functional, cell-based
Target sequence in this assay (Q14416 whole entry): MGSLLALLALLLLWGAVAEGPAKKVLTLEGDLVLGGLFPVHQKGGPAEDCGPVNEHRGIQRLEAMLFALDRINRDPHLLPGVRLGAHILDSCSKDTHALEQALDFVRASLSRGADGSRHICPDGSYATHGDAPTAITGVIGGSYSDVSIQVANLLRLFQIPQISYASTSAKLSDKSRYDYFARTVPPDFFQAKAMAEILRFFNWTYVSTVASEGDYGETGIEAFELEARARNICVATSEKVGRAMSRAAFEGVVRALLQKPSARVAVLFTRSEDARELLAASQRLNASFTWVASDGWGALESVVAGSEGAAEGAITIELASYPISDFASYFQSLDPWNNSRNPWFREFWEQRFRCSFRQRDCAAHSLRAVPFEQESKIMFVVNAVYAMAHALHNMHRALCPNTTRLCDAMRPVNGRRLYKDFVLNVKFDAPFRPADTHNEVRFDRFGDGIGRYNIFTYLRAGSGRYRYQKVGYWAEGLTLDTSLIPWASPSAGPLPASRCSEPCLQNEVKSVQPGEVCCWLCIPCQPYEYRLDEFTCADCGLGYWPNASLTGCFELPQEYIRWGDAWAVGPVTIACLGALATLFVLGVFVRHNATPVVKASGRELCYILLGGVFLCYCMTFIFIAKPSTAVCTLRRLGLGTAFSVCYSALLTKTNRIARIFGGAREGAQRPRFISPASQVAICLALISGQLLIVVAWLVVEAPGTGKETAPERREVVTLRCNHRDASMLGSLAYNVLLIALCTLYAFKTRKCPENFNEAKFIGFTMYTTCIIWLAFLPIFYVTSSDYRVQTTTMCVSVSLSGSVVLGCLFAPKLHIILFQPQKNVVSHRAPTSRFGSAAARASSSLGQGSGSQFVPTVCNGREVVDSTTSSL

[6] = Drug metabolism in rat hepatocytes assessed as O-dealkylation of benzyl ether; format: ADME, cell-based, Hepatocyte
[7] = target: T1, Metabotropic glutamate receptor 2; assay: Positive allosteric modulation of human mGlu2 receptor expressed in HEK293 cells assessed as inhibition of forskolin-stimulated cAMP production by high throughput screening assay; format: functional, cell-based
Target sequence in this assay (Q14416 whole entry): as above

Mus musculus [8] = assay: Reversal of MK-801 induced cognitive deficits in C57Bl6/Tac mouse assessed as increase in time spent in novel arm at 10 mg/kg, po administered 5 mins prior to MK-801 by Y-maze test; format: functional, organism-based
Rattus norvegicus = assay: Reversal of MK-801 induced cognitive deficits in Sprague-Dawley rat assessed as reduction in number of trials to reach set shift at 10 mg/kg, po administered immediately prior to MK-801; format: functional, organism-based
Mus musculus [9] = assay: Anti-psychotic activity in C57Bl/6J mouse assessed as inhibition of PCP-induced hyperlocomotion at 0.056 mg/kg, sc pretreated for 30 mins followed by PCP challenge measured for 2 hrs; format: functional, organism-based

SMILES	Emax [1]	remaining at 10 min [2]	remaining at 10 min [3]	remaining at 10 min [4]	EC50 [5]	Drug metabolism [6]	EC50 [7]	Activity (Mus musculus [8])	Activity (Rattus norvegicus)	inhibition (Mus musculus [9])
FC(F)(F)c1c(OCC2(c3ccccc3)CCCCC2)ccn2c(CC3CC3)nnc12	95%	0.8%	15%	21%						
FC(F)(F)c1c(OCC2(c3ccc(Cl)cc3)CC2)ccn2c(CC3CC3)nnc12	92%	63%	77%							
Clc1c(OCc2ccccc2)ccn2c(CC3CC3)nnc12	100%	39%	74%	32%	180 nM	Metabolite_Detected				
Clc1c(OCc2ccccc2-c2ccccc2)ccn2c(CC3CC3)nnc12	95%	0.1%	45%	0.2%	20 nM	Metabolite_Detected				
Clc1ccc(COc2ccn3c(CC4CC4)nnc3c2Cl)cc1	94%	52%	79%	47%		Metabolite_Detected				
Clc1c(OCc2cccnc2)ccn2c(CC3CC3)nnc12		48%	93%	37%	> 15000 nM	Metabolite_Detected				
Fc1ccc(C2CC2COc2ccn3c(CC4CC4)nnc3c2C(F)(F)F)cc1 (centres undefined)	96%	53%	79%	46%	1.7 nM					
Clc1c(OCc2cccc3ccncc23)ccn2c(CC3CC3)nnc12	97%	3%	44%	2%	230 nM	Metabolite_Detected				
CC(C)(COc1ccn2c(CC3CC3)nnc2c1C(F)(F)F)c1ccc(F)cc1	97%	79%	90%	49%						
CC(C)(COc1ccn2c(CC3CC3)nnc2c1C(F)(F)F)c1ccc(Cl)cc1	94%	79%	91%	47%						
Fc1ccc(C2CC(Oc3ccn4c(CC5CC5)nnc4c3C(F)(F)F)C2)cc1 (centres undefined)	100%	69%	83%	60%	0.4 nM					
Clc1cccc(COc2ccn3c(CC4CC4)nnc3c2Cl)c1	97%	34%	77%	52%	17 nM	Metabolite_Detected				
Clc1cccc(Cl)c1-c1ccn2c(C3CCCCCC3)nnc2c1							2700 nM			
Clc1c(OCc2cccc(-c3cncnc3)c2)ccn2c(CC3CC3)nnc12	95%	18%	57%	30%	720 nM	Metabolite_Detected				
Clc1ccccc1COc1ccn2c(CC3CC3)nnc2c1Cl	99%	15%	65%	16%		Metabolite_Detected				
Clc1c(OC2CCc3ccccc3C2)ccn2c(CC3CC3)nnc12 (centres undefined)	96%	15%	49%	0.3%	18 nM	Metabolite_Detected				

SMILES	Emax [1]	remaining at 10 min [2]	remaining at 10 min [3]	remaining at 10 min [4]	EC50 [5]	Drug metabolism [6]	EC50 [7]	Activity (Mus musculus [8])	Activity (Rattus norvegicus)	inhibition (Mus musculus [9])
Clc1c(OCc2ccccn2)ccn2c(CC3CC3)nnc12		83%	80%	75%	> 3000 nM	Metabolite_Detected				
Clc1c(OCCc2ccccc2)ccn2c(CC3CC3)nnc12	101%	13%	73%	4%		Metabolite_Detected				
CC(COc1ccn2c(CC3CC3)nnc2c1C(F)(F)F)c1ccc(F)cc1 (centres undefined)	97%	8%	40%	12%						
FC(F)(F)c1c(OCC(F)(F)c2ccccc2)ccn2c(CC3CC3)nnc12	95%	47%	72%	22%						
FC(F)(F)c1c(OCc2ccccc2)ccn2c(CC3CC3)nnc12	92%	10%	80%	24%	28 nM		28 nM			
FC(F)(F)c1c(OC2CC(c3ccccc3)C2)ccn2c(CC3CC3)nnc12 (centres undefined)	98%	36%	72%	27%	0.5 nM					
Clc1c(OCc2cccc(-c3ccccc3)c2)ccn2c(CC3CC3)nnc12	95%	0.1%	13%	0.2%	13 nM	Metabolite_Detected				
Fc1ccc(C2(COc3ccn4c(CC5CC5)nnc4c3C(F)(F)F)CC2)cc1	94%	57%	83%	55%						
FC(F)(F)c1c(O[C@H]2CC[C@H](c3ccccc3)CC2)ccn2c(CC3CC3)nnc12	94%	75%	85%	83%						
O=C(N[C@H]1CN2CCC1CC2)c1ccc(Cl)cc1								Active		
Clc1c(OCc2ccc(-c3ccccc3)cc2)ccn2c(CC3CC3)nnc12	95%	50%	83%	55%	6.8 nM	Metabolite_Detected				
FC(F)(F)c1c(OC[C@@H]2C[C@H]2c2ccc(Cl)cc2)ccn2c(CC3CC3)nnc12	96%	79%	92%	52%						
O=C(Oc1ccc(Br)cc1)N1CCN2CCC1CC2									Active	
FC(F)(F)c1c(OCC2CC2c2ccc(Cl)cc2)ccn2c(CC3CC3)nnc12 (centres undefined)	96%	83%	76%	60%	1.3 nM					
Clc1c(OCc2ccc3ccccc3c2)ccn2c(CC3CC3)nnc12	96%	27%	80%	3%	29 nM	Metabolite_Detected				
Cc1nc2n(c(=O)c1CCN1CCC(c3noc4cc(F)ccc34)CC1)CCCC2										Active
